From patent US20180008612A1 (priority 2016, published 2018)
“And” between values parts separate entries of the source, which are not always exact repeats. Equal entries are not always repeated. Where two headings read alike, the source gives them in different places.

Assays:
[1] = Antioxidant effect on galantamine stability under normal and stress conditions; assay type: physicochemical
[2] = Skin permeation, Franz diffusion cells; assay type: in vitro ADME, human; details: for Enhancement Ratio: human
Method: The flux can be measured with a standard procedure using Franz diffusion cells, and the experiments were done on human cadaver skin. With Franz cells, in each Franz diffusion cell a disc (diameter of 25 mm) of human cadaver skin is placed on the receptor compartment. A transdermal delivery system is cut the same size as the skin and placed over the diffusion area in the center of the receptor. The donor compartment is then added and clamped to the assembly. At time 0, receptor medium solution 14 mL is added into the receptor compartment and the cell maintained at 32° C. Samples of the receptor compartment are taken periodically to determine the skin flux and analyzed by HPLC.
Skin permeation of various formulations were tested. The results are provided in FIGS. 1, and 2 and Tables 5 and 6. Higher the amount of the galantamine in the adhesives will increase the penetration, but when over the saturation point, the transdermal system will crystalize, and result a low penetration rate.
When adding an enhancer, it might improve the penetration rate. […] When increase the amount of the enhancer, it might not improve the penetration rate.
A co-solvent helps dissolving the drug in the adhesive but it might also help with the penetration rate.

[3] = galantamine with the antioxidant (label), 25′C
[4] = galantamine with the antioxidant (label), 60′C-14 D
[5] = galantamine with the antioxidant (label), 80′C-1 D
[6] = galantamine with the antioxidant (label), 80′C-4 D

Compound	Total Impurity Amount % [1, 3] [%]	Total Impurity Amount % [1, 4] [%]	Total Impurity Amount % [1, 5] [%]	Total Impurity Amount % [1, 6] [%]	further results
CCCCCCCCCCCCCCCC(=O)OC[C@H](O)[C@H]1OC(=O)C(O)=C1O [Ascorbyl Palmitate, ascorbyl palmitate]	0.12	0.58	0.28	1.13	–
O=[N+]([O-])C(Br)(CO)CO [Bronopol, bronopol]	0.18	0.81	0.69	1.82	–
Cc1cc(C(C)(C)C)c(O)c(C(C)(C)C)c1 [Butylated Hydroxytoluene (BHT), butylated hydroxytoluene]	0.11	0.33	0.51	1.18	–
O=C1O[C@H]([C@H](O)CO)C(O)=C1O [Erythorbic Acid, erythorbic acid]	0.50	–	–	0.87	Total Impurity Amount % [1]: 1.35% and 0.74%
CCCCCCCC/C=C\CCCCCCCC(=O)OCC [Ethyl Oleate, ethyl oleate]	–	–	–	–	Enhancement Ratio ([2]; 3 % w/w): 2
CCCCCCCCCCCCCC(=O)OC(C)C [IPM, isopropyl myristate]	–	–	–	–	Enhancement Ratio ([2]; 3 % w/w): 2; Enhancement Ratio ([2]; 5 % w/w): 1
OCC(O)CS (stereo not shown) [Monothioglycerol, monothioglycerol]	0.16	1.09	0.51	1.49	–
CCCCCCCC/C=C\CCCCCCCC(=O)O [Oleic Acid, oleic acid]	–	–	–	–	Enhancement Ratio ([2]; 3 % w/w): 1
CC(O)CO (stereo not shown) [Propylene Glycol, propylene glycol]	–	–	–	–	Enhancement Ratio ([2]; 5 % w/w): 4; Enhancement Ratio ([2]; 10 % w/w): 7
O=S([O-])[O-].[Na+].[Na+] [Sodium Sulfite, sodium sulfite]	0.14	–	–	1.69	Total Impurity Amount % [1]: 1.04% and 0.74%
O=S([O-])([O-])=S.[Na+].[Na+] [Sodium Thiosulfate, sodium thiosulfate]	–	–	–	–	Total Impurity Amount % [1]: 0.13% and 1.02% and 0.67% and 2.20%
O=S([O-])S(=O)(=O)[O-].[Na+].[Na+] [Sodium metabisulfite, sodium metabisulfite]	0.17	0.45	0.14	0.93	–
O=S=O [Sulfur Dioxide, sulfur dioxide]	0.16	1.04	0.54	1.83	–
CCOCCOCCO [Transcutol P, diethylene glycol monoethyl ether]	–	–	–	–	penetration rate [2]: improves the penetration rate; Enhancement Ratio ([2]; 5 %): 5; Enhancement Ratio ([2]; 5 % w/w): 4
vitamin E	0.12	–	–	1.77	Total Impurity Amount % [1]: 0.84% and 0.69%
